Laboratory results: patent US20080220497A1, “Modulation of protein functionalities” (priority 2003, published 2008)
pIC50: −log10 of the molar value.

Assays:
[1] = biological target: T1, unphosphorylated p38-alpha kinase (Homo sapiens, UniProt Q16539, DEL261-261); experiment: Thermal denaturation of unphosphorylated p38-alpha kinase; assay type: binding; conditions: for ΔTm (° C.) relative to unphosphorylated apo p38: […] p38-alpha kinase, 15 μM small molecule
T1 construct: 48 (6×His-TEV tag, full length); 6×His-TEV tag (N); purchased Decode Genetics, Inc; host or cells: E. coli
Source text: (§1) Denaturation was monitored by measuring the absolute absorbance of the solutions at an appropriate wavelength (typically 230 nm and 240 nm) as a function of temperature. As the protein became denatured, additional UV absorbing functional groups became exposed causing an increase in absorbance at the melting temperature. […] The thermal data were collected using Agilent spectrophotometers and ChemStation UV/Vis Thermal Denaturation software.
The final protein and buffer solution was mixed gently using a pipetter to minimize denaturing due to over aggressive mixing. The final solution was transferred to a 50 μL cuvette for analysis.
(§2) The final solution was transferred to a 50 μL cuvette for analysis.
(§3) A first derivative calculation with data smoothing was applied to the resulting data to report the point of inflection as the melting temperature.

[2] = biological target: T2, doubly phosphorylated p38-alpha kinase (Homo sapiens, UniProt Q16539); experiment: Thermal denaturation of doubly phosphorylated p38-alpha kinase; assay type: binding; conditions: for ΔTm (° C.) relative to doubly phosphorylated p38: 0.5 μM p38-alpha kinase, 20 μM small molecule
T2 construct: 6xHis ([…], seen only in the listing) (C); purchased Roche Applied Diagnostics
Procedure: as §1
The final concentration was 0.5 μM p38-alpha kinase and 20 μM small molecule. The final protein and buffer solution was mixed gently using a pipetter to minimize denaturing due to over aggressive mixing. The final solution was transferred to a 50 μL cuvette for analysis.
The protein and buffer solution was mixed gently using a pipetter to minimize denaturing due to over aggressive mixing. The final solution was transferred to a 50 μL cuvette for analysis.
as §3

p38-alpha kinase = p38-alpha kinase (Homo sapiens, UniProt Q16539); conditions: time-dependent if IC50 values decrease with reaction time (more than two-fold in four hours)
Procedure: This dilution can be done automatically on a Tecan (or similar) robotic workstation or performed manually. • 3. […] This step can be performed automatically on a Tecan (or similar) robotic workstation or performed manually. • 4. Incubate at 30° C. or room temp for 2 h, depending on protein stability. • 5. Read at emission wavelength 420 nm upon excitation at 340 nm.

V599E Braf kinase = biological target: T3, V599E Braf kinase (Homo sapiens, UniProt P15056, V600E); experiment: Thermal denaturation of oncogenic V599E Braf kinase; assay type: binding; conditions: 1.4 μM V599E Braf kinase, 20 μM small molecule; read-out: ΔTm (° C.) relative to unphosphorylated B-Raf(V599E)
T3 construct: 6×His-tag (N); made in house; host or cells: Sf9 insect cells (baculovirus)
Procedure: as §1, §2, §2, §3

Abl kinase = experiment: Thermal denaturation of Abl kinase; assay type: binding, human; conditions: 1 μM Abl kinase, 20 μM small molecule
Procedure: as §1
5 μL of 40 μM Abl kinase was mixed with 195 μL of the small molecule/buffer solution. The final concentration was 1 μM Abl kinase and 20 μM small molecule. The final protein and buffer solution was mixed gently using a pipetter to minimize denaturing due to over aggressive mixing. The final solution was transferred to a 50 μL cuvette for analysis.
Test solutions containing only the Abl kinase were prepared as follows: 5 μL of 40 μM Abl kinase was mixed with 195 μL Buffer to give a concentration of 1 μM Abl kinase in Buffer. The protein and buffer solution was mixed gently using a pipetter to minimize denaturing due to over aggressive mixing. The final solution was transferred to a 50 μL cuvette for analysis.
as §3

[3] = biological target: T1, unphosphorylated p38-alpha kinase; experiment: Fluorescence affinity assay, unphosphorylated p38-alpha kinase; assay type: binding; conditions: for Ratio IC50s: doubly phosphorylated vs unphosphorylated p38-alpha, >1.0 = preference for unphosphorylated form; for pIC50: ~24 nM enzyme, 1.0 uM SKF-86002, read-out: FP IC50 U-p38-alpha
Source text: (§4) This fluorescence affinity assay is utilized in an affinity-based screen to identify small molecules which bind into switch control pockets of protein kinases. Binding of small molecule switch inhibitors displaces the switch control ligand phenylalanine of the DFG motif into an orientation which sterically blocks the ATP pocket. Such inhibitor-induced blockade of the ATP pocket is registered as an inhibition of binding of the fluoroprobe into the ATP pocket.
(§5) • 1. p38-alpha kinase • a. […] Polarstar Optima plate reader (BMG)
(§6) • 1. […] This dilution can be done automatically on a Tecan (or similar) robotic workstation or performed manually. • 3. Mix Solution A with the diluted compound solutions following Step 3 of Table 22. This step can be performed automatically on a Tecan (or similar) robotic workstation or performed manually. • 4. Incubate at 30° C. or room temp for 2 h, depending on protein stability. • 5. Read at emission wavelength 420 nm upon excitation at 340 nm.
The reaction was initiated by addition of the enzyme. […] By comparison of RFU (relative fluorescence units) values with that of a control (in the absence of small molecule modulators), the percentage of inhibition at each concentration of the small molecules was calculated. IC50 values for the small molecule modulators were calculated from the % inhibition values obtained at a range of concentrations of the small molecule modulators using Prism (available from GraphPad, Inc.). When time-dependent inhibition was assessed, the plate was read at multiple reaction times such as 0.5, 1, 2, 3, 4 and 6 hours. The IC50 values were calculated at each time point. An inhibition was assigned as time-dependent if the IC50 values decrease with the reaction time (more than two-fold in four hours).
(§7) A ratio greater than 1.0 indicates a preference for inhibiting the unphosphorylated form of p38-alpha kinase relative to the doubly phosphorylated form. A ratio less than 1.0 indicates a preference for inhibiting the doubly phosphorylated form of p38-alpha kinase relative to the unphosphorylated form.

[4] = biological target: T2, doubly phosphorylated p38-alpha kinase; experiment: Fluorescence affinity assay, doubly phosphorylated p38-alpha kinase; assay type: binding; conditions: ~24 nM enzyme; 1.0 uM SKF-86002; read-out: FP IC50 P-p38-alpha
Source text: as §4, §5
as §6, with “nm. […]” for “nm.”
as §7

p38-alpha kinase, sequence (Q16539 whole entry): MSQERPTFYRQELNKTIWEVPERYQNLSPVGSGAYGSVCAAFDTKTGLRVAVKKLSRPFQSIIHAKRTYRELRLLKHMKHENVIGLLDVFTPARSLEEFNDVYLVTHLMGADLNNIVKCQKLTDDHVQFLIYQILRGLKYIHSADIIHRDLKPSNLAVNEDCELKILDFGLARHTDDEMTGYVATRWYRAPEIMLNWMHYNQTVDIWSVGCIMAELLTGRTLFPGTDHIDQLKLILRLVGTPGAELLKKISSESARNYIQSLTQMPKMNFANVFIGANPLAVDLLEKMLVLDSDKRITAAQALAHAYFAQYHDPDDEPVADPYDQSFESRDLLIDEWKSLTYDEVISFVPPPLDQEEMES
T3 sequence (P15056 with tags, fused parts or gaps V600E): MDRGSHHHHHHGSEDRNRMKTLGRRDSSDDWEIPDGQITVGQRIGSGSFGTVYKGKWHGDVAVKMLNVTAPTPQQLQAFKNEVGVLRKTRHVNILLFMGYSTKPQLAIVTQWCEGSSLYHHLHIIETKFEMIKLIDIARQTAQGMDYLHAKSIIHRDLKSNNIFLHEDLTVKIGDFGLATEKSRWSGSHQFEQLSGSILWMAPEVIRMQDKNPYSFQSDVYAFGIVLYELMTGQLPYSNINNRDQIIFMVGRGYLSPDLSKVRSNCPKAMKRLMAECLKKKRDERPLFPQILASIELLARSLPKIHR
T2 sequence (Q16539 with tags, fused parts or gaps): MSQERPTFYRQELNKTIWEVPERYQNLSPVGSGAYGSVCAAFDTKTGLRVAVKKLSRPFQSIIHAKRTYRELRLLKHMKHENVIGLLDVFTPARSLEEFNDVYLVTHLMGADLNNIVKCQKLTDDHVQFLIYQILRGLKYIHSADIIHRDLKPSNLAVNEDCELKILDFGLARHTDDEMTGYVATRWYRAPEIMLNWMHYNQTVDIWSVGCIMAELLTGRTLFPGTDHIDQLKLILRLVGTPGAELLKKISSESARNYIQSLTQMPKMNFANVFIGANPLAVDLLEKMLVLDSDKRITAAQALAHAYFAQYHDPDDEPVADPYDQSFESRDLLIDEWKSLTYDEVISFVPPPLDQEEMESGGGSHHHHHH
T1 sequence (Q16539 with tags, fused parts or gaps DEL261-261): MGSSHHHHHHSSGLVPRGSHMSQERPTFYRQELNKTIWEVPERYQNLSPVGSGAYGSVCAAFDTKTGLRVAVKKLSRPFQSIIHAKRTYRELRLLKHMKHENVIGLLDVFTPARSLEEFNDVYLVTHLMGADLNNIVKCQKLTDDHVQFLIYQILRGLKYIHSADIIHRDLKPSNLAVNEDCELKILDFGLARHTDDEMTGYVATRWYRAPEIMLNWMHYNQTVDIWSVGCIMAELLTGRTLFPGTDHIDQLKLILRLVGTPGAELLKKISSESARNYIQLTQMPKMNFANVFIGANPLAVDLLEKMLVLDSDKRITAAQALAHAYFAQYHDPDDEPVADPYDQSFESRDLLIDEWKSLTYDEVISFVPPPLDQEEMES

| SMILES | Ratio IC50s [3] | pIC50 [3] | pIC50 [4] | ΔTm (° C.) relative to unphosphorylated apo p38 [1] [°C] | ΔTm (° C.) relative to doubly phosphorylated p38 [2] [°C] | further results |
| --- | --- | --- | --- | --- | --- | --- |
| CC(C)(C)c1cc(NC(=O)Nc2cccc(Cl)c2Cl)n(-c2cccc(CC(N)=O)c2)n1 [Example 69] |  |  |  |  |  | Thermal denaturation assay ΔTm ([1]; unphosphorylated p38-alpha kinase): 13.10 °; Thermal denaturation assay ΔTm ([2]; phosphorylated p38-alpha kinase): 9.1 ° |
| CC(C)(C)c1cc(NC(=O)Nc2cccc3ccccc23)n(-c2ccc(CN)cc2)n1 [Example 45] |  |  |  |  |  | Time-dependent (p38-alpha kinase): No |
| CC(C)(C)c1cc(NC(=O)Nc2cccc3ccccc23)n(-c2cccc(C(C)(C)O)c2)n1 [Example 83] |  |  |  |  |  | ΔTm at 20 µM (V599E Braf kinase): 14.9 °C |
| CC(=O)N1CCc2ccc(-n3nc(C(C)(C)C)cc3NC(=O)Nc3cccc(Cl)c3Cl)cc2C1 [Example 88] |  |  |  |  |  | ΔTm (° C.) relative to unphosphorylated Abl (Abl kinase): 1.2 °C |
| COc1ccc(-n2nc(C(C)(C)C)cc2NC(=O)Nc2cccc(Cl)c2Cl)cc1 [Example 91] |  |  |  |  |  | ΔTm (° C.) relative to unphosphorylated Abl (Abl kinase): 12.5 °C |
| Cc1ccc(NC(=O)Nc2cc(C(C)(C)C)nn2-c2ccc3c(c2)CCNC3)cc1Nc1ncccn1 [Example 94, 1-(3-tert-butyl-1-(1,2,3,4-tetrahydroisoquinolin-6-yl)-1H-pyrazol-5-yl)-3-(4-methyl-3-(pyrimidin-2-ylamino)phenyl)urea] | 1.9 | 8.00 | 7.72 |  |  |  |
| NC(=O)Cc1cccc(-n2nc(-c3ccccc3)cc2NC(=O)Nc2cccc(Cl)c2Cl)c1 [Example 77] | 1.1 | 7.60 | 7.24 | 8.0 | 5.3 |  |
| CC1(O)CCN(C(=O)Cc2ccc(-n3nc(C(C)(C)C)cc3NC(=O)Nc3cccc(Cl)c3Cl)cc2)CC1 [Example 70] | 2.3 | 7.59 | 7.59 | 12.6 | 8.7 |  |
| CC(C)(C)c1cc(NC(=O)Nc2cccc(Cl)c2Cl)n(-c2ccc(CC(=O)N3CCS(=O)(=O)CC3)cc2)n1 [Example 96] | 3.0 | 8.15 | 8.10 |  |  |  |
| CC(C)(C)c1cc(NC(=O)Nc2cccc3ccccc23)n(-c2cccc(C(C)(C)O)c2)n1 [Example 75] | 0.7 | 6.78 | 6.92 | 8.2 | 5.6 |  |
| CC(C)(C)c1cc(NC(=O)Nc2cccc3ccccc23)n(-c2ccc(C(O)C(F)(F)F)cc2)n1 (stereo not shown) [Example 73] |  |  |  | 8.9 | 5.9 |  |
| CC(C)(C)c1cc(NC(=O)Nc2cccc3ccccc23)n(-c2cccc(CO)c2)n1 [Example 71] | 1.1 | 7.77 | 7.72 | 10.9 | 9.6 |  |
| NC(=O)Cc1cccc(-n2nc(-c3cscn3)cc2NC(=O)Nc2cccc(Cl)c2Cl)c1 [Example 78] | 1.5 | 6.63 | 6.71 | 6.7 | 3.9 |  |
| CC(C)(C)c1cc(NC(=O)Nc2cccc(Cl)c2Cl)n(-c2ccc3c(c2)CCC(=O)N3)n1 [Example 81] |  |  |  |  |  | ΔTm at 20 µM (V599E Braf kinase): 17.3 °C |
| CC(C)(C)c1cc(NC(=O)Nc2cccc3ccccc23)n(-c2ccc(OCC(=O)O)cc2)n1 [Example 92] | 3.1 | 7.28 | 6.80 |  |  |  |
| CC(C)(C)c1cc(NC(=O)Nc2cccc(Cl)c2Cl)n(-c2cccc(C(=N)N)c2)n1 [Example 90] |  |  |  |  |  | ΔTm (° C.) relative to unphosphorylated Abl (Abl kinase): 1.3 °C |
| CC(C)(C)c1cc(NC(=O)Nc2cccc3ccccc23)n(-c2cccc(CC(=O)N3CCOCC3)c2)n1 [Example 21, 1-(3-tert-butyl-1-(3-(2-morpholino-2-oxoethyl)phenyl)-1H-pyrazol-5-yl)-3-(naphthalen-1-yl)urea] |  |  |  |  |  | Time-dependent (p38-alpha kinase): Yes |
| CC(C)(C)c1cc(NC(=O)Nc2cccc(Oc3cccnc3)c2)n(-c2cccc(CC(N)=O)c2)n1 [Example 93, 1-(1-(3-(2-amino-2-oxoethyl)phenyl)-3-tert-butyl-1H-pyrazol-5-yl)-3-(3-(pyridin-3-yloxy)phenyl)urea] | 2.4 | 7.80 | 7.41 |  |  |  |
| CNC(=O)Cc1cccc(-n2nc(C(C)(C)C)cc2NC(=O)Nc2cccc(Cl)c2Cl)c1 [Example 79] |  |  |  |  |  | ΔTm at 20 µM (V599E Braf kinase): 12 °C |
| CC1(C(=O)O)CC2(C)CC(C)(C1)C(=O)N(Cc1cccc(-n3nc(C(C)(C)C)cc3NC(=O)Nc3ccc(Cl)cc3)c1)C2=O (stereo not shown) [Example 12] |  |  |  |  |  | Time-dependent (p38-alpha kinase): No |
| CC(C)(C)c1cc(NC(=O)Nc2cccc(Cl)c2Cl)n(-c2ccc(CC(N)=O)cc2)n1 [Example 76] |  |  | 7.59 | 13.1 | 9.4 |  |
| CC(C)(C)c1cc(NC(=O)Nc2cccc(Cl)c2Cl)n(-c2ccc(CC(N)=O)cc2)n1 [Example 84] |  |  |  |  |  | ΔTm at 20 µM (V599E Braf kinase): 12.5 °C |
| CC(C)(C)c1cc(NC(=O)Nc2ccc(Cl)cc2)n(-c2ccc(CO)cc2)n1 [Example 61] | 0.8 | 7.62 | 7.72 | 8.5 | 5.9 |  |
| CC(C)(C)c1cc(NC(=O)Nc2cccc(Cl)c2Cl)n(-c2ccc3c(c2)CN(S(C)(=O)=O)CC3)n1 [Example 80] |  |  |  |  |  | ΔTm at 20 µM (V599E Braf kinase): 14.6 °C; ΔTm (° C.) relative to unphosphorylated Abl (Abl kinase): 2.3 °C |
| CC(C)(C)c1cc(NC(=O)Nc2cccc(Cl)c2Cl)n(-c2cc(CO)c3ccccc3c2)n1 [Example 87] |  |  |  |  |  | ΔTm (° C.) relative to unphosphorylated Abl (Abl kinase): 3.6 °C |
| CC(C)(C)c1cc(NC(=O)Nc2ccc(Cl)cc2)n(-c2cccc(CO)c2)n1 [Example 85] |  |  |  |  |  | ΔTm at 20 µM (V599E Braf kinase): 2.9 °C |
| CC(C)(C)c1cc(NC(=O)Nc2cccc(Cl)c2Cl)n(-c2cc(CNC(=O)NS(C)(=O)=O)c3ccccc3c2)n1 [Example 86] |  |  |  |  |  | ΔTm (° C.) relative to unphosphorylated Abl (Abl kinase): 4.0 °C |
| O=C(Nc1cccc(Cl)c1Cl)Nc1cc(-c2ccccc2)nn1-c1cccc(CO)c1 [Example 63] |  | 7.55 | 7.07 | 9.4 | 5.0 |  |
| CC(C)(C)c1cc(NC(=O)Nc2cccc(Cl)c2Cl)n(-c2ccc3c(c2)C(N)=NCC3)n1 [Example 89] |  |  |  |  |  | ΔTm (° C.) relative to unphosphorylated Abl (Abl kinase): 1.8 °C |
| CC(C)(C)c1cc(NC(=O)Nc2cccc(Cl)c2Cl)n(-c2ccc3c(c2)CCNC3=O)n1 [Example 82] |  |  |  |  |  | ΔTm at 20 µM (V599E Braf kinase): 13.5 °C |
